Experimental data published in patent US10401793B2, “Digital holographic method of measuring cellular activity and measuring apparatus with improved stability” (PURDUE RESEARCH FOUNDATION, priority 2010, dated 2019).
“Also recorded” adds a separate entry of the source. Read-outs that look alike come from different tables or passages of the source.

What was measured:
Type in all cases: cell-based
tumor spheroids = assay: Motility contrast imaging (motility metric, dynamic speckle) of tumor spheroids; conditions: for dose-response plotted as a reaction velocity (suppression of cellular motion): FIG. 13D, comparison of Nocodazole, Colchicine, Taxol
Experimental: To create tumor spheroids for our studies, two different cell lines were used: rat osteogenic sarcoma UMR-106 cells, and human liver carcinoma Hep G2 cells. These were cultured in a rotating bioreactor (Synthecon, Houston, Tex.) where they were maintained in suspension. The spheroids may be grown up to a mm in diameter. An advantage to using this continuous culture model is that fresh spheroids of varying size are easily prepared on a daily basis.
Motility contrast imaging relies on dynamic light scattering combined with coherence gating. […] The data are the reconstructed pixel intensities plotted on a dB reflectance scale. The tumor in FIG. 9A was “healthy” while the tumor in FIG. 9B had been crosslinked with glutaraldehyde. […] The vertical axis is frame number at a rate of one frame per second.
Among the several possible ways to define a motility metric, one particularly robust approach simply calculates the coefficient of variance (known as the CV or as the normalized standard deviation) of a pixel value (after background subtraction) as a property related to the cellular and subcellular motion. The motility metric for individual pixels is plotted in FIG. 11 at nine selected depths inside a healthy tumor. The depths starting in the upper-left are 60 μm, 120 μm, 180 μm, 260 μm, 330 μm, 390 μm, 460 μm, 530 μm and 600 μm, respectively. The first frame is near the top of the tumor, while the central frame is near the center plane of the tumor. In the central plane there is a strong contrast between the healthy shell and necrotic core. […] These images correlate with the known structure of the tumor spheroids with a healthy outer shell and a necrotic core. In these images, the internal motions of the cells themselves have provided the imaging contrast agent. This is a truly endogenous functional imaging approach (i.e. without additional labeling or contrast agents).
Armed with the motility metric and the maps of cellular motion, it is possible to image the effects of anti-mitotic drugs (AMD) on the motility images. A time series at a fixed depth is shown in FIG. 12 for Nocodazole, which is an antimitotic drug (AMD) that inhibits the polymerization of tubulin into microtubules. The first frame is the initial state of the tumor. […] Nocodazole inhibits the polymerization of the microtubules, while treadmilling dissolves the microtubules from the other end, resulting in a significant reduction in the microtubule density within the cells. Without the microtubule cytoskeleton, organelle transport is suppressed, which is captured by the dynamic light scattering.

[1] = test system: Rat osteogenic sarcoma tumor spheroids; assay: Speckle fluctuation spectroscopy: differential spectrograms (normalized spectral difference) of living tumor spheroids by coherence-gated digital holography
Source text: The set-up includes several mirrors M; a neutral density filter ND, two polarizing beam splitters PBS, a beam splitter BS, three lenses L1-L3, a half-wave plate λ/2, a quarter-wave plate λ/4, a Fourier plane FP, and a sample or target T. A mode-locked Ti:sapphire laser (100 fs pulse duration, 100 MHz repetition rate) was used with a center wavelength of 840 nm and a bandwidth of 17 nm. The lenses L1 and L2 expanded a reference beam, and the lens L3 performed the Fourier transform of the object beam. The CCD camera was placed at the Fourier plane of the object, where the object beam interfered with the zero-path-matched reference beam that passed through the computer-controlled delay line. The typical object intensity for living tissue at the object plane was 5 mW/mm^2, and an 8-bit CCD camera with one mega-pixel resolution was used with an exposure time of 10 msec. Digital holograms were reconstructed by Fast Fourier transform (FFT).
Rat osteogenic sarcoma tumor spheroids were used as the target tissue samples. Multicellular tumor spheroids have approximately spherical geometry that facilitates comparison of structure to function. As tumor spheroids are cultured in a rotating bioreactor, they undergo cell apoptosis or necrosis in their center and so consist of an inner necrotic core surrounded by an outer proliferating shell with a 100 to 200 μm thickness. A typical pseudo B-scan image is shown in FIG. 20, which is produced from 3D holographic images of an 800-μm-diameter rat tumor spheroid.
To capture dynamic speckle, 200 successive digital holograms were acquired at a fixed depth shown as a dashed line in FIG. 20. The time interval between holograms was selected to be 0.1 second. Examples of dynamic speckle are shown in FIG. 21A for a healthy rat tumor spheroid with a 600 μm diameter. […] The horizontal axis is the spatial axis and time is vertical. […] A “healthy” tumor is one that has been removed from the bioreactor and maintained in growth medium at room temperature for no more than 24 hours.
For tissue responding to stimuli, such as temperature and osmolarity changes or response to drugs, the key property of the spectral power density is its relative change in response to the stimulus. The normalized spectral difference for a time series is given by
[formula] where S0 (ω,t 0) is the starting spectral power density at the beginning time t0 of the experiment, and S(ω, t) is the time development of the spectral power density. The normalized power spectrum as a function of frequency of a 450-μm-diameter tumor responding to a dose of 1 μg/ml of nocodazole, an anti-tubulin cytoskeletal drug, is shown in FIG. 21C at selected times after the application of the drug. The associated normalized differential relative spectral change is shown in FIG. 21D as a function of time for the selected frequencies.
The tissue response contained in D(ω, t) can be represented as a spectrogram, showing the relative change in the spectrum as a function of time. These spectrograms track the changes of the intra-cellular motion in living tumors responding to temperature changes, osmolarity changes, and to nocodazole. The spectral difference in response to changes in temperature is shown in FIG. 22A as the temperature increased from 24° C. to 37° C. and then decreased to 24° C. The lower frequencies show weak suppression with increasing temperature, while the upper frequencies show significant enhancement at the highest temperature.
The drug-response spectrograms are defined by the differential relative spectral density as D(ω, t)=[S(ω, t)−S(ω, t0)]/S (ω, t0) where the spectrum at time t is related to and normalized by the spectrum at time to before the application of the perturbation or dose. The normalization is essential, because the spectral power density has general 1/f behavior, and the high frequency amplitudes are much smaller than the low frequency amplitudes. […]

[2] = test system: tumor spheroid (healthy shell and necrotic core); assay: Heterodyne autocorrelation function of depth-gated speckle (correlation time, NSD) of a tumor spheroid; conditions: 10 minutes after 10 μg/ml cytochalasin D
Source text: In living tissue, the speckle is dynamic, caused by motion of cellular membranes and by intracellular organelles, coupled with the optical channel cross-talk caused by multiple scattering. […] We previously studied the effects of anti-mitotic drugs on tumor spheroids using optical coherence imaging, and defined motility metrics from the autocorrelation functions of the depth-gated pixel fluctuations. The resulting motility contrast imaging (MCI) is fully endogenous, responding to the dynamic functions of cellular processes. The autocorrelation function is a first-order heterodyne function because the holography uses a reference wave (the coherence gate) that captures the real and imaginary part of the fluctuating field as the coherence-gated pixel number Id^(1) (t) to yield the autocorrelation function A^(1)(τ)= ? id^(1)(0)id^(1)(τ) ? ∝ILO^2+2ILORE {I^(1)(τ)} where τ is the time delay among an ensemble of images, and I^(1), (τ) is the heterodyne correlation function. Two motility metrics can be defined from the heterodyne correlation function. They are the decay time, and the normalized standard deviation, given by
An ensemble consists of 40 images taken with a frame rate of 1 per second. […] […].

COC(=O)Nc1nc2ccc(C(=O)c3cccs3)cc2[nH]1 [Nocodazole]
motility (activity) of the outer shell, motility maps (tumor spheroids; 2 μg/ml Nocodazole, 3 minutes after application, fixed depth): increased its activity by a small amount
motility (motion) of the outer shell, motility maps (tumor spheroids; 2 μg/ml Nocodazole, 21 minutes): partially suppressed
motility (motion) of the outer shell, motility maps (tumor spheroids; 2 μg/ml Nocodazole, 50 minutes): further suppressed
motility (motion) of the outer shell, motility maps (tumor spheroids; 2 μg/ml Nocodazole, 79 minutes): further suppressed
motility in the outer shell, motility maps (tumor spheroids; 2 μg/ml Nocodazole, 119 minutes after application): significantly reduced
dose-response plotted as a reaction velocity (suppression of cellular motion) (tumor spheroids): strongest suppression of cellular motion at the lowest effective concentrations
normalized spectral difference, middle frequency range between 0.02 Hz to 1 Hz ([1]; 1 μg/ml nocodazole): very strong suppression in motion
normalized spectral difference, ultra-low frequency below 0.01 Hz ([1]; 1 μg/ml nocodazole): enhancement
normalized differential relative spectral change as a function of time at selected frequencies ([1]; 1 μg/ml nocodazole, 450-μm-diameter tumor, proliferating shell): higher frequencies change relatively less than the lower frequencies
spectrogram fingerprint ([1]; dose of 1 μg/ml, FIG. 34A-34D): significant enhancement of lower frequencies

O=C(O)CI [iodoacetate]
oscillations in the spectrogram, shell and core [1]: induces oscillations in the mid-to-low frequency range
spectrogram of the shell, high frequencies associated with organelle transport [1]: strong increase

CC(=O)O[C@H]1C(=O)[C@@]2(C)[C@H]([C@H](OC(=O)c3ccccc3)[C@]3(O)C[C@H](OC(=O)[C@H](O)[C@@H](NC(=O)c4ccccc4)c4ccccc4)C(C)=C1C3(C)C)[C@]1(OC(C)=O)CO[C@@H]1C[C@@H]2O [Taxol, Paclitaxel]
suppression of the motility, time evolution under different doses (tumor spheroids; FIG. 13A-13C): significantly smaller suppression of the motility
dose-response plotted as a reaction velocity (suppression of cellular motion) (tumor spheroids): weakest effect
spectrogram fingerprint ([1]; dose of 1 μg/ml, FIG. 34A-34D): only a weak change
high-frequency organelle activity, core-shell comparison ([1]; shell versus core spectrograms): appears only in the healthy shell and not in the core

C=C1[C@@H](C)[C@H]2[C@H](Cc3ccccc3)NC(=O)[C@]23[C@H](OC(C)=O)/C=C/[C@@](C)(O)C(=O)[C@@H](C)C/C=C/[C@H]3[C@@H]1O [cytochalasin D]
brightness change of the healthy shell [2]: 6%
brightness change of the necrotic core [2]: becomes dimmer
correlation time, healthy shell ([2]; before dose 4.6 sec): 7.2 s
relative power spectral density, middle-frequency fluctuations, shell ([1]; 50 μg/ml cytochalasin D at room temperature, 10 μg/ml at physiological temperature): enhanced
spectrogram fingerprint ([1]; dose of 1 μg/ml, FIG. 34A-34D): enhancement of the mid-frequencies for about 2 hours after application of the drug, followed by a shift of the spectral weight to lower frequencies
high-frequency organelle activity, core-shell comparison ([1]; shell versus core spectrograms): appears only in the healthy shell and not in the core; also recorded: appears strongly only in the shell and not in the core

O=CCCCC=O [glutaraldehyde]
dynamic speckle at fixed depth (tumor spheroids; tumor crosslinked with glutaraldehyde, depth about 300 microns, one frame per second): static speckle

COc1cc2c(c(OC)c1OC)-c1ccc(OC)c(=O)cc1[C@@H](NC(C)=O)CC2 [Colchicine]
high-frequency organelle activity, core-shell comparison [1]: appears only in the healthy shell and not in the core
spectrogram fingerprint [1]: significant enhancement of lower frequencies
